What is called half-life is the time in which the quantity being followed falls by half. A higher half-life goes with slow loss.

The values below come from ChEMBL document CHEMBL1129438, “Neighboring group catalysis in the design of nucleotide prodrugs” (J Med Chem, 1996).

Data set [1] in a line: Half life (t 1/2) during hydrolysis caused by human serum. It counts as ADME, organism-based.
Data set [2] can be described thus: Half life (t 1/2) during pig liver esterase-catalyzed hydrolysis. The data set is classed as ADME, organism-based, Sus scrofa.
Data set [3] in a line: Half life (t 1/2) during hydrolysis catalyzed by brain extract. It counts as ADME, tissue-based.
The nature of data set [4]: Half life (t 1/2) during base-catalyzed hydrolysis. It counts as ADME.

Consider `O=C(OC1O[C@H](CO)[C@@H](O)[C@H](O)[C@H]1O)c1ccccc1OP(=O)(OC[C@@H]1CC[C@H](n2ccc(=O)[nH]c2=O)O1)OC[C@@H]1CC[C@H](n2ccc(=O)[nH]c2=O)O1` (stereo partly specified), for which the half-life in data set [1] is 48 h; in data set [2], more than 48 h; in data set [3], more than 72 h; in data set [4], 17 h.

With `[N-]=[N+]=N[C@H]1C[C@H](n2ccc(=O)[nH]c2=O)O[C@@H]1COP(=O)(OC[C@H]1O[C@@H](n2ccc(=O)[nH]c2=O)C[C@@H]1N=[N+]=[N-])Oc1ccccc1C(=O)Oc1ccccc1`, the half-life is 4 h in data set [1], 1 h in data set [2], 5 h in data set [3] and 1.1 h in data set [4].

Consider `COC(=O)c1ccccc1OP(=O)(OC[C@H]1O[C@@H](n2ccc(=O)[nH]c2=O)C[C@@H]1N=[N+]=[N-])OC[C@H]1O[C@@H](n2ccc(=O)[nH]c2=O)C[C@@H]1N=[N+]=[N-]`, for which the half-life in data set [1] is 4 h; in data set [2], 20 h; in data set [3], 4 h; in data set [4] it was 1.1 h.

As for `[N-]=[N+]=N[C@H]1C[C@H](n2ccc(=O)[nH]c2=O)O[C@@H]1COP(=O)(OC[C@H]1O[C@@H](n2ccc(=O)[nH]c2=O)C[C@@H]1N=[N+]=[N-])Oc1ccccc1`, the half-life in data set [1], in data set [2], in data set [3] and in data set [4] was 17 h throughout.
